Results from ChEMBL document CHEMBL4190325, “[…] Extracts as Tools to Balance Estrogenic and Chemopreventive Activities of Botanicals for Women's Health” (J Nat Prod, 2017).
pEC50, pIC50: −log10 of the molar value.

Tests used:
Estrogen receptor = molecular target: T1, Estrogen receptor (Homo sapiens, UniProt P03372); assay: Estrogenic activity at estrogen receptor alpha in human Ishikawa cells assessed as induction of alkaline phosphatase activity using p-Nitrophenol phosphate as substrate pretreated for 96 hrs followed by substrate addition measured every 15 secs by scanning spectrophotometric analysis; type: cell-based; conditions: for pEC50: read-out: EC50
T1 sequence (P03372 whole entry): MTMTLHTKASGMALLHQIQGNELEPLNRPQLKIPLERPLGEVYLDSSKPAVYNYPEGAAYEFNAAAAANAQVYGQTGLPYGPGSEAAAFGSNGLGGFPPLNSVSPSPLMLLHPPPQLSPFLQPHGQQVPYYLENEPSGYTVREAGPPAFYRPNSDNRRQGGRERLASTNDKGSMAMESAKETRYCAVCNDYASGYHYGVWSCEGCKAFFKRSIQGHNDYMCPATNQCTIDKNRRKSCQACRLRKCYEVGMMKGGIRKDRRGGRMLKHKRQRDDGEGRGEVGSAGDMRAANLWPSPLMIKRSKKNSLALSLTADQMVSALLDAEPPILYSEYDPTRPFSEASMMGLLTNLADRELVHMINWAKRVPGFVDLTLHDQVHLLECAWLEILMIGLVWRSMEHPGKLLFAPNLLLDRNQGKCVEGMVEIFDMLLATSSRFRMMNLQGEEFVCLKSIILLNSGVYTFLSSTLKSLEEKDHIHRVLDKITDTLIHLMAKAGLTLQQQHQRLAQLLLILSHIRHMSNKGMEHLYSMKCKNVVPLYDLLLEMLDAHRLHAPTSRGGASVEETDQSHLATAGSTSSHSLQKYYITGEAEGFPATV

[1] = molecular target: NAD(P)H dehydrogenase [quinone] 1 (Mus musculus) (UniProt Q64669)
Description: Induction of NQO1 activity in mouse Hepa1c1c7 cells after 48 hrs by MTT reduction assay

Ishikawa = assay: cells; conditions: Homo sapiens, 96 h
Description: Cytotoxicity against human Ishikawa cells after 96 hrs by SRB assay

cells = conditions: Mus musculus, Hepa-1c1c7, 48 h
Description: Cytotoxicity against mouse Hepa1c1c7 cells after 48 hrs by crystal violet staining based assay

Sequence of NAD(P)H dehydrogenase [quinone] 1 (Mus musculus) (Q64669 whole entry): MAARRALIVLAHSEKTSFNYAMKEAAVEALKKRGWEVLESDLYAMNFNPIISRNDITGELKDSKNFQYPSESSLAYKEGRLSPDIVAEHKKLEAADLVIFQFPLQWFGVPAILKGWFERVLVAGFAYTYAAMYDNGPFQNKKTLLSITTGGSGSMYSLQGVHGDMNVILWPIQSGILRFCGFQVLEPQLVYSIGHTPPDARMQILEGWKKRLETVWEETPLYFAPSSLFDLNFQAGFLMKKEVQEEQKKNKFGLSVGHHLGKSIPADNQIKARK

**Q.** Which results are given for `CC(C)=CCc1c(O)cc2c(c1O)C(=O)CC(c1ccc(O)cc1)O2` (stereo unspecified)?
**A.** pEC50 (Estrogen receptor): 6.40; CD [1]: > 30 µM; pIC50 (Ishikawa): < 5.30; pIC50 (cells): < 4.70

**Q.** With `O=c1cc(-c2ccc(Br)cc2)oc2ccccc12` as the compound, how does the pIC50 (cells) read?
**A.** The pIC50 was 3.78 to 6.15.

**Q.** Which CD [1] does the source give for `CC(C)=CCc1c(O)cc(O)c2c1O[C@H](c1ccc(O)cc1)CC2=O` here?
**A.** Its CD is over 30 µM.

**Q.** And the pIC50 (Ishikawa)?
**A.** Its pIC50 is 4.72.

**Q.** What about the pIC50 (cells) of the same compound?
**A.** The pIC50 was under 4.70.

**Q.** With `COc1cc(O)c(CC=C(C)C)c2c1C(=O)CC(c1ccc(O)cc1)O2` (stereo unspecified) [ISOXANTHOHUMOL] as the compound, how does the pEC50 (Estrogen receptor) read?
**A.** The pEC50 was 5.85.

**Q.** And the CD [1]?
**A.** Its CD is over 50 µM.

**Q.** And the pIC50 (Ishikawa)?
**A.** Its pIC50 is 4.60.

**Q.** And the pIC50 (cells)?
**A.** Its pIC50 is 4.51.

**Q.** Which EC50 (Estrogen receptor; ishikawa) does the source give for `COc1cc(O)c(CC=C(C)C)c(O)c1C(=O)/C=C/c1ccc(O)cc1` [XANTHOHUMOL] here?
**A.** The EC50 was “Not Active”.

**Q.** What about the CD [1] of the same compound?
**A.** The CD was 1.3 µM.

**Q.** And the pIC50 (Ishikawa)?
**A.** Its pIC50 is 5.38.

**Q.** And the pIC50 (cells)?
**A.** The pIC50 was 4.76.
